These results are taken from publication PMC9549030, “Structural basis for specific inhibition of the deubiquitinase UCHL1” (Nature Communications, 2022).

In one data set the test system is Cathepsin C. Also on record: method as in SI-Ref-4. The following applies: ref SI-Ref-4; cited from earlier work.
Data set [1] deals with monoubiquitin in U-87 MG cells. Description: Quantification of monoubiquitin levels. It counts as cell-based, human. The settings on record: 48 h, independent experiments. On the procedure:
U-87 MG cells (5 × 10^5/well) were seeded in six-well plates and cultivated for 8 h. Cells were transfected with siRNA as described above. On the next day, cells were cultured in fresh media supplemented with either compounds (final conc. 5 µM) or DMSO, where indicated, for a further 48 h. The media was changed every 24 h to a fresh medium supplemented with compounds (final conc. 5 µM) or DMSO. […] Monoubiquitin band intensities were first normalized to α-tubulin or total protein (Fast Green FCF, TCI) and subsequently normalized to the intensities of monoubiquitin bands in the sample treated with DMSO or siScr (where no DMSO was used) which was set to “1”.

In data set [2] the target is T1, UCHL1 (Homo sapiens, UniProt P09936).
T1 sequence (P09936 1-223): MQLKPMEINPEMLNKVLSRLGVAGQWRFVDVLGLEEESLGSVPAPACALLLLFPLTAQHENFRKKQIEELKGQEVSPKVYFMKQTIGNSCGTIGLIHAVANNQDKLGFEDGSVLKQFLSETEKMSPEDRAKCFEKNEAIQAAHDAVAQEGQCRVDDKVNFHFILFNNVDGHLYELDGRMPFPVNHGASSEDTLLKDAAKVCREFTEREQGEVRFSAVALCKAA
In words: Thermal shift assay. The settings on record: UCHL1 1 µM, 1 h, replicates. It counts as binding. Here is the method: Reactions were performed in white 96-well PCR plates (Bio-Rad). UCHL1 was diluted in thermal shift buffer (1x PBS, 5 mM DTT) to a 4x concentration of 4 µM. The protein was then mixed with 4x compound dissolved in thermal shift buffer in a 1:1 ratio. To each well was added 20 µL of DUB-Inhibitor solution, followed by 1 h incubation time. To each well was then added 20 µL 4x SYPRO Orange in thermal shift buffer. After sealing the plates with a transparent film, thermal denaturation (gradient: 20–90 °C; Increment: 0.3 °C, hold for 5 s before read) was performed and monitored by a Bio-Rad Connect cycler.

In the next data set the test system is T2, UCHL1 in HEK293 cells.
T2 construct: Western blot analysis of endogenous UCHL1 labeled with HA-Ub-VS after treatment of HEK293 cells; endogenous in cells; host or cells: HEK293
In words: Cellular Ub-probe (HA-Ub-VS) competition, inhibition of cellular UCHL1. The following applies: HEK293 cells; 24 h. It counts as cell-based, human. Here is the method: Proteins were transferred to a polyvinylidene fluoride (PVDF, only experiments in Fig. 4e and Supplementary Fig. 7e, f) or nitrocellulose (all other experiments) membrane using a Trans-Blot Turbo system (Bio-Rad, 1.3 A, 25 V, 10 min). The membranes were blocked with 5% (m/v) nonfat milk in PBS-T buffer and incubated with indicated primary antibodies (anti-UCHL1, 1:1000, Cell Signaling, D3T2E; anti-PARK7, 1:1000, Cell Signaling, D29E5; anti-Tubulin, 1:4000, Sigma, T6199; anti-Hemagglutinin, 1:1000, BioLegend, 16B12; anti-flag, 1:2000, Sigma, F3165; anti-Ubiquitin, 1:1000, Cell Signaling, P4D1; anti-Ubiquitin, 1:300, Santa Cruz, P4D1, sc-8017; anti-UCHL3, 1:1000, Proteintech, 12384-1-AP) overnight. Then the membranes were incubated with the respective secondary antibody (anti-mouse,1:5000, Sigma, NXA931; anti-rabbit, 1:5000, Sigma, GENA934) coupled to horseradish peroxidase. The chemiluminescent reaction was initiated using a Clarity Western ECL substrate (Bio-Rad) and images were taken on a ChemiDoc MP Imaging System (Bio-Rad).
The total protein concentration was adjusted to 2 mg/ml by diluting each sample with ABP lysis buffer. A final concentration of 1 µM HA-Ub-VS probe was added, followed by incubation for 30 min at 37 °C. The labeling reaction was quenched by the addition of 4x LDS sample buffer. The samples were separated via SDS-PAGE and further analyzed via western blotting as described above.

The test system of the next data set is HEK293 cells proteome. Description: Identification of probe-labeled proteins with mass spectrometry (pulldown, other proteins). The settings on record: 1 µM, vs DMSO.
In the next data set the test system is HEK293 cells. Description: Cell growth and viability assay (confluency, propidium iodide). The following applies: up to 5 µM, up to 72 h. The format is cell-based, human. Here is the method:
(§1) HEK293 cells (5 × 10^3/well) or U-87 MG cells (5.5 × 10^3/well) were seeded into 96-well dishes. The following day cells were treated with the compounds at varying concentrations and propidium iodide at 20 µg/mL. The plates were immediately transferred to the Incucyte S3. Bright-field and red fluorescent images were automatically captured at 1 or 2 h intervals for 72 h with 10x magnification. The confluency of cells and the number of PI-positive cells was determined using the Incucyte masking program.

The next data set concerns U-87 MG cells. The description is as above. The format is cell-based, human. The settings on record: up to 5 µM, up to 72 h. Here is the method:
as §1

For data set [3], the target named is T1, UCHL1. In words: Identification of probe-labeled proteins with mass spectrometry (pulldown enrichment). The following applies: HEK293 cells; 1 µM; 24 h.
Description: Cells were cultured, treated with a compound, and lysed as described above. The cell lysate was diluted to a protein concentration of 2 mg/mL with ABP lysis buffer. 1 µL of each click reagent (see above) were added to each sample, followed by an incubation period of one hour at room temperature with protection from light. The sample volume was adjusted to 1000 µL with PBS and 30 µL of a NeutrAvidin (Thermo Fisher) bead slurry (prewashed 3x with PBS) were added to each sample. The samples were incubated for one hour to overnight on a rotator at 15 rpm at 4 °C. Beads were pelleted by centrifugation, the supernatant was discarded, and the beads were washed six times (1x with ½x lysis buffer, followed by five washes with PBS). After removing the washing solution completely, the beads were subjected to reduction with dithiothreitol (1 mM), alkylation with chloroacetamide (5 mM) and on-bead digestion with first LysC (Serva Biotech, 1 h, 37 °C), followed by trypsin (Sigma Aldrich, 1 h, overnight). Tryptic peptides were desalted with C18 StageTips and analyzed by nano-HPLC-MS/MS.
An Ultimate 3000 RSLC nano-HPLC system and a Hybrid-Orbitrap mass spectrometer (Q Exactive Plus) equipped with a nano-spray source (Thermo Fisher Scientific) was used. The protein fragments were enriched on a C18 PepMap 100 column (5 μm, 100 Å, 300 μm ID * 5 mm, Dionex) using 0.1% TFA, at a flow rate of 30 μL/min, for 5 min and separated on a C18 PepMap 100 column (3 μm, 100 Å, 75 μm ID × 50 cm) using a linear gradient (5–30% ACN/H2O + 0.1% formic acid over 90 min) with a flow rate of 300 nL/min. […] Signals in the mass range of m/z 300 to 1650 were acquired at a resolution of 70,000 for the full scan, followed by ten high-energy collision-dissociation (HCD) MS/MS scans of the most intense at least doubly charged ions at a resolution of 17,500. Proteins were relatively quantified by using MaxQuant[60] v.2.0.3.1, including the Andromeda search algorithm and searching the Homo sapiens reference proteome of the UniProt database. Briefly, an MS/MS ion search was performed for enzymatic trypsin cleavage, allowing two missed cleavages. Carbamidomethylation was set as a fixed protein modification, and oxidation of methionine and acetylation of the N-terminus were set as variable modifications. The mass accuracy was set to 20 parts per million (ppm) for the first search and to 4.5 ppm for the second search. The false discovery rates for peptide and protein identification were set to 0.01. Only proteins for which at least two peptides were quantified were chosen for further validation. Relative quantification of proteins was performed by using the label-free quantification algorithm implemented in MaxQuant. Statistical data analysis of pulldown samples was performed using Perseus[61] v.1.6.15.0, including proteins which were identified in at least four of the five biological replicates which were used per condition. Label-free quantification (LFQ) intensities were log-transformed (log2); replicate samples were grouped together. Pairwise comparisons of groups were performed separately. Missing values were imputed using small normally distributed values (width 0.3, downshift 1.8) and a two-sided t-test (s0 = 5, FDR = 0.001) was performed.
Data set [4] addresses T1, UCHL1. Description: Ub-Rhodamine (Ubiquitin rhodamine cleavage) assay. The format is biochemical. The settings on record: 1 h preincubation.
The next data set deals with Caspase 1. Details: method as in SI-Ref-5. The following applies: ref SI-Ref-5; cited from earlier work.
A further data set has as its target Prolyl oligopeptidase. Also on record: method as in SI-Ref-8. The settings on record: ref SI-Ref-8; cited from earlier work.
Another data set concerns Cathepsin K. The following applies: ref SI-Ref-7; cited from earlier work.

pIC50: −log10 of the molar value. Values joined by “and” are separate entries in the source; they are usually repeats but may differ in a detail not shown here. Identical values can stand only once. “Also recorded” adds a separate entry of the source.

Description for HEK293 cells proteome: Cells were cultured, treated with a compound, and lysed as described above. The cell lysate was diluted to a protein concentration of 2 mg/mL with ABP lysis buffer. 1 µL of each click reagent (see above) were added to each sample, followed by an incubation period of one hour at room temperature with protection from light. The sample volume was adjusted to 1000 µL with PBS and 30 µL of a NeutrAvidin (Thermo Fisher) bead slurry (prewashed 3x with PBS) were added to each sample. The samples were incubated for one hour to overnight on a rotator at 15 rpm at 4 °C. […] Tryptic peptides were desalted with C18 StageTips and analyzed by nano-HPLC-MS/MS.
An Ultimate 3000 RSLC nano-HPLC system and a Hybrid-Orbitrap mass spectrometer (Q Exactive Plus) equipped with a nano-spray source (Thermo Fisher Scientific) was used. […] Proteins were relatively quantified by using MaxQuant[60] v.2.0.3.1, including the Andromeda search algorithm and searching the Homo sapiens reference proteome of the UniProt database. […] Only proteins for which at least two peptides were quantified were chosen for further validation. Relative quantification of proteins was performed by using the label-free quantification algorithm implemented in MaxQuant. […] Label-free quantification (LFQ) intensities were log-transformed (log2); replicate samples were grouped together. […]

What is called pIC50 is the negative decadic logarithm of the IC50, by convention in mol/L. As for `N#Cc1ccc(-c2ccc(C[C@@H](C#N)NC(=O)C3(N)CCOCC3)cc2)cc1` [AZD5248], the negative logarithm of the IC50 (pIC50) with Cathepsin C is 8.54.

For the molecule `C#CCCCNC(=O)[C@H]1CCN(C#N)C1` [GK16S], the “monoubiquitin intensity normalized to DMSO (= 1)” value in data set [1] (siSCr, 5 µM) is 1.022 and 1.336 and 1.231 and 0.8547; in data set [1] (siUCHL3, 5 µM) it was 1.049 and 0.9228 and 0.9331 and 0.7832 and 1.05 and 0.7905. Moreover, the “melting temperature (Tm) of UCHL1” value at UCHL1 [2] (compound 1.25 µM) is 53.4 and 53.1; at UCHL1 [2] (compound 2.5 µM), 53.4 and 53.1; on UCHL1 [2] (compound 5 µM) it was 53.1 and 53.4. The “inhibition of cellular UCHL1” value in the data set with UCHL1 in HEK293 cells was “did not equate to a detectable inhibition; also recorded: does not inhibit cellular UCHL1”. The “Fold change log2, protein 02. Sep” value with HEK293 cells proteome came out at 0.4147. Moreover, in the data set on HEK293 cells proteome, the “Fold change log2, protein 07. Sep” value is 0.472. The “growth arrest and apoptosis” value with HEK293 cells is “neither GK13S nor GK16S showed growth arrest nor apoptosis”. Moreover, the “toxicity (cell growth and viability)” value in the data set with U-87 MG cells was “nontoxic”. In addition, the “enrichment factor of UCHL1 (log2, vs DMSO)” value at UCHL1 [3] is given as 3. Besides, the pIC50 on UCHL1 [4] (read-out: IC50 (UCHL1)) was less than 4.00. Besides, the remaining activity at 0.00050402 µM at UCHL1 [4] (compound 0.50402 nM, read-out: UCHL1 activity, data point mean) stood at 90.8%. Further, at UCHL1 [4] (compound 1.51206 nM, read-out: UCHL1 activity, data point mean), the remaining activity at 0.00151206 µM stood at 89.7%. Moreover, the remaining activity at 0.00453618 µM on UCHL1 [4] (compound 4.53618 nM, read-out: UCHL1 activity, data point mean) was 99.1%. Also, the remaining activity at 0.0136085 µM on UCHL1 [4] (compound 13.6085 nM, read-out: UCHL1 activity, data point mean) was 96.8%. In addition, the remaining activity at 0.0408257 µM on UCHL1 [4] (compound 40.8257 nM, read-out: UCHL1 activity, data point mean) is 83.7%. The remaining activity at 0.122477 µM at UCHL1 [4] (compound 122.477 nM, read-out: UCHL1 activity, data point mean) was determined as 87.4%. In addition, on UCHL1 [4] (compound 367.431 nM, read-out: UCHL1 activity, data point mean), the remaining activity at 0.367431 µM turned out to be 90.4%. Moreover, the remaining activity at 1.10229 µM at UCHL1 [4] (compound 1102.29 nM, read-out: UCHL1 activity, data point mean) is 91.3%. Further, the remaining activity at 3.30688 µM on UCHL1 [4] (compound 3306.88 nM, read-out: UCHL1 activity, data point mean) came to 90.9%. The remaining activity at 30.581 µM on UCHL1 [4] (compound 30581 nM, read-out: UCHL1 activity, data point mean) was determined as 81%. Further, at UCHL1 [4] (compound 100000 nM, read-out: UCHL1 activity, data point mean), the remaining activity at 100 µM turned out to be 68.2%.

Regarding `CC(C)(C)[C@H](NC(=O)c1ccc(N)c(Cl)c1)C(=O)N1CCC[C@H]1C(=O)N[C@H](C#N)CC(=O)O` [ML132], the negative logarithm of the IC50 (pIC50) at Caspase 1 is 10.64.

As for `N#C[C@@H]1CCCN1C(=O)[C@@H]1CCCN1C(=O)CCCc1ccccc1` [KYP-2047], the negative-log IC50 (pIC50) at Prolyl oligopeptidase was 8.41.

With `CC(C)(F)C[C@H](N[C@@H](c1ccc(-c2ccc(S(C)(=O)=O)cc2)cc1)C(F)(F)F)C(=O)NC1(C#N)CC1` [Odanacatib], the negative logarithm of the IC50 (pIC50) with Cathepsin K was 9.70.
